# Results taken from patent US20110301238A1, “SEIZURE RELATED DISORDERS AND THERAPEUTIC METHODS THEREOF” (priority 2010, published 2011).
# Read-outs that look alike come from different tables or passages of the source.
# Columns and labels:
# mouse seizure models [1] = test system: mouse seizure models; set-up: key: +: Efficacy in mouse seizure models is indicated as plus; −: minus; some (+/−); details: literature; cited from earlier work
# mouse seizure models [2] = test system: mouse seizure models; set-up: key: +: Efficacy in mouse seizure models is indicated as plus; −: minus; some (+/−); details: literature; cited from earlier work; remark: listed apart in the source
# mouse seizure models [3] = test system: mouse seizure models; set-up: key: +: Efficacy in mouse seizure models is indicated as plus; −: minus; some (+/−); details: literature; the PTZ model was performed in rats for PHB, PHT and VPA; cited from earlier work
# mouse seizure models [4] = test system: mouse seizure models; set-up: key: +: Efficacy in mouse seizure models is indicated as plus; −: minus; some (+/−); details: literature; cited from earlier work; remark: listed apart in the source
# Wistar rats = test system: Wistar rats; set-up: key to Efficacy in PTZ in PILO-SE rodents (chronic): +: Efficacy in mouse seizure models is indicated as plus; −: minus; some (+/−); details: cited from earlier work; for sensitivity of PTZ-induced seizures to drug: one month after pilocarpine, subcutaneous PTZ
# [5] = Brain metabolite analysis in chronic stage of pilocarpine model (GC-MS/LC-MS); format: in vivo, CF1 mice; details: for brain BHB (β-hydroxybutyrate) / brain Fumarate (%) / brain GABA / brain aspartate (%) / brain citrate / brain glutamate / brain glutamine / brain malate (%) / brain succinate: 35% triheptanoin for three weeks
# Text: (§1) Both groups of mice received standard diet during the phase of epileptogenesis, the first two weeks after SE. They were then divided into two groups of equal average weight and received either standard or 35% triheptanoin-containing diet for three weeks. To avoid metabolite changes induced by anesthesia, mice were killed by cervical dislocation and then decapitated. Within 22-32 seconds brains without cerebellum were frozen in liquid nitrogen. Trunk blood was collected in heparinized tubes for analysis of β-hydroxybutyrate and glucose using kits from Pointe Scientific and […], respectively. Brains were stored at -80 C and shipped to the Metabolic Mouse Phenotyping Center at Case Western University for chromatography mass spectrometry (GC-MS/LC-MS) analysis and characterization of intermediates and products of the CAC and acyl-CoA's.
# [6] = Plasma β-hydroxybutyrate and glucose in pilocarpine model; format: in vivo, CF1 mice; details: no significant changes; range over the SE/no SE and diet groups
# Text: as §1
# acute seizure models = test: Fluorothyl acute seizure model; format: in vivo; details: 30% triheptanoin (Willis and Borges in preparation)
# [7] = Urine organic acids (GC-MS); format: in vivo, mice; details: 24 h urine; levels well below those of propionic acidemia patients
# CD1 mice = test: Maximal electroshock threshold test (MEST); format: in vivo; set-up: key to Efficacy in MEST (acute): +: Efficacy in mouse seizure models is indicated as plus; −: minus; some (+/−)
# Procedure: 0.5% Tetracaine (Sigma Aldrich) in 0.9% NaCl solution was applied to corneas 30 minutes prior to stimulation. Saline solution was also applied to corneas and electrodes immediately prior to stimulation to ensure solid conduction. Mice were administered corneal electroshocks, which were generated using a Hugo Sachs Type 211 rodent shocker (Harvard Apparatus, Germany). Stimulation parameters of 50-60 Hz sine wave frequency, 0.2 second shock duration starting at an 11 mA current were used (Giardina and Gasior, 2009). Immediately following shock administration mouse seizure behaviour was observed. Severe clonic convulsions followed by tonic extension of both forelimbs were classified as seizures. 1 mA increments were used to determine the seizure threshold CC50 value using the up down method (Kimball et al., 1957). All mice were terminated via cervical dislocation immediately following seizure observational time.
# mouse seizure models [8] = test: 6 Hz (acute) seizure model; format: in vivo; set-up: key to Efficacy in 6 Hz (acute): +: Efficacy in mouse seizure models is indicated as plus; −: minus; some (+/−)
# CF1 mice [9] = test: PTZ (i.v.) seizure threshold, second hit model in chronic stage of pilocarpine SE model; format: in vivo; set-up: key to Efficacy in PTZ in PILO-SE rodents (chronic): +: Efficacy in mouse seizure models is indicated as plus; −: minus; some (+/−)
# Procedure: The pilocarpine CF1 mouse model used in this study was slightly modified from our previous description (Borges et al., 2003, Borges et al., 2004, Borges et al., 2006, Borges et al., 2008). 26-43 g CF1 mice were injected with methylatropine (2 mg/kg i.p. in 0.9% NaCl) to minimize peripheral side effects followed after 15-30 min by different doses of pilocarpine for CF1 mice (270-360 mg/kg, s.c.). About fifty percent of injected mice experienced behavioral status epilepticus (SE) lasting about four hours as defined by continuous seizure activity consisting mainly of whole body continuous clonic seizures. 4.5 h after pilocarpine injection, all mice were injected with pentobarbital (22.5 mg/kg, i.p.) followed by 1 ml 5% dextrose in lactate Ringer's solution (i.p.). After SE, mice were monitored daily, hand-fed moistened cookies and injected with 5% dextrose in lactate Ringer's solution twice a day for about three days and thereafter when needed. Spontaneous and handling-induced seizures, including stage 3-5 seizures, jumping and wild running, were noted. […] “Sham control” mice received methylatropine and pentobarbital, but saline instead of pilocarpine. Out of a total of 205 mice injected with pilocarpine, the inventors obtained 44% SE, 41% no SE mice, while 14% of mice died. In the chronic stage of the pilocarpine model, the seizure thresholds for the first generalized clonic and tonic seizures induced by pentylenetetrazole (PTZ, i.v.) as a measure for seizure susceptibility of SE, no SE and control mice were assessed. As previously described ([…] et al., 2008, Willis et al., 2009), 10 mg/ml PTZ dissolved in saline was infused into the tail vein at 150 μl/min. The latencies to the first generalized myoclonic seizure and tonic extension were determined and converted to seizure thresholds expressed as mg/kg body weight. Mice were euthanized by cervical dislocation immediately after the tonic extension seizure.
# CF1 mice [10] = test: Corneal kindling; format: in vivo; set-up: key to Delay in corneal kindling (chronic): +: Efficacy in mouse seizure models is indicated as plus; −: minus; some (+/−)
# Procedure: The corneal kindling model was slightly modified from the original protocol ([…] and […], 1998) with kindling twice a day with at least 4 h intervals. A topical anesthetic (0.5% tetracaine hydrochloride ophthalmic solution) was applied to the corneas 10-15 min before stimulation. After wetting the electrodes with 0.9% NaCl immediately before testing, 9 mA 0.4 ms duration pulses at 50 Hz were applied to the corneas for 3 seconds by a constant-current device (ECT Unit 57800, Ugo Basile). Mice were manually held during stimulation and then released for behavioral observation. Seizures were scored according to a modified Racine scale (Racine, 1972) as described by […] and […] (1998) with 0=no reaction or immobility; 1=jaw clonus; 2=myoclonic twitches in the forelimbs, sometimes with head nodding; 3=clonic convulsions in the forelimbs; 4=clonic convulsions in the forelimbs with rearing and falling; 5=loss of balance. […] Both groups had the same average seizure scores for the full kindling period and the last three days of kindling. During the five following weeks, mice were rekindled every week twice a day on two consecutive days and the scores were averaged.
# mouse seizure models [11] = test: PTZ (acute) seizure model; format: in vivo; set-up: key to Efficacy in PTZ (acute): +: Efficacy in mouse seizure models is indicated as plus; −: minus; some (+/−)
# [12] = Procedure: All mice were housed under a 12 h light dark cycle with free access to food and water. […] Adult male CD1 mice (20-35 g, Australian Institute for Bioengineering and Nanotechnology, Australia) were fed similar diet, prepared by Western Specialty Feed (West Australia). […] Diets were mixed fresh every 3-4 days in the laboratory, dried and then supplied to the mice. Mice were initially weighed daily to ensure adequate nutrition.
# After 4 days habituation, food intake and body weight were determined daily and then averaged per day for each mouse. 24 h urine samples were taken and organic acids isolated by liquid partition chromatography and trimethylsilyl derivatives quantified by gas chromatography mass spectrometry (Sweetman, 1991). In a separate study mice were fed respective diets for 3 weeks and were decapitated after isoflurane anaesthesia between 1-4 pm. Trunk blood was collected on absorbent filter paper for measurement of acyl-carnitine levels in dried blood spots using tandem mass spectrometry modified from the method of Rashed et al. (Rashed et al., 1997).
# [13] = chronically epileptic SE mice, not in no SE mice
# [14] = 30% triheptanoin (Willis and Borges in preparation)
structure (smiles),measurement,setting,value
"NC(=O)N1c2ccccc2C=Cc2ccccc21 [CBZ, carbamazepine]",Efficacy in 6 Hz (acute),mouse seizure models [1],+/−
same,Efficacy in MEST (acute),mouse seizure models [2],+
same,Efficacy in PTZ (acute),mouse seizure models [3],−
"CC[C@@H](C(N)=O)N1CCCC1=O [LEV, levetiracetam]",Efficacy in 6 Hz (acute),mouse seizure models [1],+
same,Efficacy in MEST (acute),mouse seizure models [2],−
same,Delay in corneal kindling (chronic),mouse seizure models [4],+
same,Efficacy in PTZ (acute),mouse seizure models [3],−
"O=C1NC(=O)C(c2ccccc2)(c2ccccc2)N1 [PHT, phenyloin]",Efficacy in 6 Hz (acute),mouse seizure models [1],+
same,Efficacy in MEST (acute),mouse seizure models [2],+
same,sensitivity of PTZ-induced seizures to drug,Wistar rats; SE Wistar rats,not in SE rats
same,Efficacy in PTZ in PILO-SE rodents (chronic),"Wistar rats; literature, PTZ model performed in rats for PHB, PHT and VPA",−
same,sensitivity of PTZ-induced seizures to drug,Wistar rats; no SE Wistar rats,sensitive
same,Efficacy in PTZ (acute),mouse seizure models [3],−
"CCCCCCC(=O)OCC(COC(=O)CCCCCC)OC(=O)CCCCCC [Triheptanoin, 1,3-di(heptanoyloxy)propan-2-yl heptanoate]",brain β-hydroxybutyrate levels,"[5]; 35% triheptanoin diet, both SE and no SE brains",doubled
same,brain BHB (β-hydroxybutyrate),[5]; No SE mice,108.9 ± 9.6 μmol/g wet weight
same,brain Fumarate (%),[5]; No SE mice,82.8 ± 3.8 % of control
same,brain GABA,[5]; No SE mice,2.36 ± 0.13 μmol/g wet weight
same,brain aspartate (%),[5]; No SE mice,104.0 ± 7.0 % of control
same,brain citrate,[5]; No SE mice,0.21 ± 0.01 μmol/g wet weight
same,brain glutamate,[5]; No SE mice,21.59 ± 0.92 μmol/g wet weight
same,brain glutamine,[5]; No SE mice,12.91 ± 0.49 μmol/g wet weight
same,brain malate (%),[5]; No SE mice,125.5 ± 7.7 % of control
same,brain succinate,[5]; No SE mice,0.11 ± 0.01 μmol/g wet weight
same,brain BHB (β-hydroxybutyrate),[5]; SE mice,127.4 ± 15.7 μmol/g wet weight
same,brain Fumarate (%),[5]; SE mice,81.4 ± 2.9 % of control
same,brain GABA,[5]; SE mice,2.16 ± 0.05 μmol/g wet weight
same,brain aspartate (%),[5]; SE mice,76.6 ± 4.1 % of control
same,brain citrate,[5]; SE mice,0.2 ± 0.01 μmol/g wet weight
same,brain glutamate,[5]; SE mice,22.01 ± 1.65 μmol/g wet weight
same,brain glutamine,[5]; SE mice,13.15 ± 0.48 μmol/g wet weight
same,brain malate (%),[5]; SE mice,80.1 ± 3.9 % of control
same,brain succinate,[5]; SE mice,0.10 ± 0.01 μmol/g wet weight
same,brain propionyl-CoA levels,"[5]; SE mice, triheptanoin feeding, p<0.001",restored
same,steady state brain level of succinyl-CoA,[5]; by SE or diet,No significant changes
same,increase of brain HMG-CoA levels,[5]; [13],1.8 fold
same,increase of brain methylmalonyl-CoA levels,[5]; [13],1.4 fold
same,decrease of brain fumarate levels,"[5]; no SE mice, p<0.05",17%
same,increase of brain malate levels,"[5]; no SE mice, p<0.05",26%
same,plasma levels of glucose,[6],174 to 228 mg/dL
same,plasma levels of β-hydroxybutyrate,[6],0.17 to 0.28 mM
same,anticonvulsant effect in acute fluorothyl model,acute seizure models,No consistent anticovulsant effect
same,"urine markers for propionic acidemia (methylmalonate, methylcitrate)",[7],some increases
same,"MEST (critical current at which 50% of mice seize, CC50)","CD1 mice; 35% of daily caloric intake as triheptanoin oil, after 3.5 and six weeks, CD1 mice, p=0.018 and p<0.0011",reproducible increase
same,Efficacy in MEST (acute),CD1 mice; mouse,+
same,anticonvulsant effect in acute 6 Hz model,mouse seizure models [8]; [14],No consistent anticovulsant effect
same,Efficacy in 6 Hz (acute),mouse seizure models [8]; mouse,−
same,PTZ clonic seizure thresholds,"CF1 mice [9]; SE or no SE mice, diet for three weeks after pilocarpine",no effect
same,reversal of increased susceptibility to PTZ tonic extension in SE mice,"CF1 mice [9]; diet initiated immediately after pilocarpine injection, three weeks, p<0.05",about 40%
same,Efficacy in PTZ in PILO-SE rodents (chronic),CF1 mice [9]; mice,+
same,reversal of susceptibility to PTZ tonic extension in no SE mice,"CF1 mice [9]; no SE mice, three weeks after pilocarpine injection",but not in no SE mice
same,counteraction of 30% increased susceptibility to tonic extension seizure in SE mice,"CF1 mice [9]; three week feeding initiated two weeks after pilocarpine injection, p<0.05",about 50%
same,development of corneally kindled seizures,"CF1 mice [10]; 35% triheptanoin feeding from three weeks prior to and throughout kindling, CF1 mice",delayed the development of kindled seizures
same,Delay in corneal kindling (chronic),CF1 mice [10]; mouse,+
same,anticonvulsant effect in acute PTZ (i.v.) model,mouse seizure models [11]; [14],No consistent anticovulsant effect
same,Efficacy in PTZ (acute),mouse seizure models [11]; mouse,−
same,body weights,"[12]; 35% triheptanoin diet vs standard chow, up to 52 days, CF1 mice",statistically indistinguishable
same,tolerability,"[12]; mouse, in vivo",well tolerated
